# PMC8544188 (Molecular Diversity, 2021)
# Entries after “also recorded” stand apart in the source; their conditions may differ.
# Assays:
# α-glucosidase [1] = biological target: T1, α-glucosidase (Saccharomyces cerevisiae, UniProt P53341); assay: α-glucosidase inhibition assay; format: biochemical
# α-glucosidase [2] = biological target: T1, α-glucosidase; assay: Enzyme kinetic studies; format: biochemical; settings: Lineweaver–Burk plot: Km increased, Vmax unchanged
# T1 sequence (P53341 whole entry): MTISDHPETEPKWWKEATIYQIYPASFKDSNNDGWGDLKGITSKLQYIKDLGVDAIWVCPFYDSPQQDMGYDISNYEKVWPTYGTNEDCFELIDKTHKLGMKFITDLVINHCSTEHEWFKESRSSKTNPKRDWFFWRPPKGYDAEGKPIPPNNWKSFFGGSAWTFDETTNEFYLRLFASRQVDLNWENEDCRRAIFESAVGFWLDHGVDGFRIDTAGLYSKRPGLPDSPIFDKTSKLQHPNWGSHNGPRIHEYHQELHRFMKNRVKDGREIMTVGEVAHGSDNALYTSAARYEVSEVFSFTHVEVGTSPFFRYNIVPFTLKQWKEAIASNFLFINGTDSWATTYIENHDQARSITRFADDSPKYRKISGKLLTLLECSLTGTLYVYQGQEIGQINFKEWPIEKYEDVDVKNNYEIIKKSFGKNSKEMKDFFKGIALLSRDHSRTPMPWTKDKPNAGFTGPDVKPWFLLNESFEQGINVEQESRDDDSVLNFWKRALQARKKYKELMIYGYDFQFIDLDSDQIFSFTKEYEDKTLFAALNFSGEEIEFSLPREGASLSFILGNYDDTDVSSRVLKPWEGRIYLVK
compound,measurement,setting,value
"N#CC(C(N)=O)c1c(-c2ccccc2)[nH]c2c1c(=O)oc1ccccc12 (stereo not shown) [4a, 2-cyano-2-(4-oxo-2-phenyl-1,4-dihydrochromeno[4,3-b]pyrrol-3-yl)acetamide]",fold improvement in inhibitory potency compared to acarbose (positive control),α-glucosidase [1]; ratio of IC50 values versus acarbose,around fivefold
"N#CCc1c(-c2ccccc2)[nH]c2c1c(=O)oc1ccc(Cl)cc12 [5b, 2-(8-chloro-4-oxo-2-phenyl-1,4-dihydrochromeno[4,3-b]pyrrol-3-yl)acetonitrile]",α-glucosidase inhibitory activity in words,α-glucosidase [1],diminished the inhibitory activity completely
"N#CCc1c(-c2ccc(Cl)cc2)[nH]c2c1c(=O)oc1ccccc12 [5d, 2-(2-(4-chlorophenyl)-4-oxo-1,4-dihydrochromeno[4,3-b]pyrrol-3-yl)acetonitrile]",fold increase in potency compared to 5a,α-glucosidase [1]; ratio of IC50 values versus 5a,around fivefold
"COc1ccc(-c2[nH]c3c(c2CC#N)c(=O)oc2ccccc23)cc1 [5e, 2-(2-(4-methoxyphenyl)-4-oxo-1,4-dihydrochromeno[4,3-b]pyrrol-3-yl)acetonitrile]",mode of inhibition,α-glucosidase [2],competitive inhibition; also recorded: competitive inhibitor
